Read-outs that look alike come from different tables or passages of the source. One block for each compound: values may come before it.
Target: T1, partially purified rat brain famesyl protein transferase (FPT) (Rattus norvegicus, UniProt Q02293+Q04631)
T1 construct: partially purified rat brain famesyl protein transferase (FPT); from tissue; host or cells: rat brain
Assay: In vitro enzyme assay: inhibition of Ras-CVLS farnesylation by farnesyl protein transferase (FPT)
Type: biochemical
Procedure: • 1. In vitro enzyme assays: FPT IC50 (inhibition of famesyl protein transferase, in vitro enzyme assay) are determined by the methods disclosed in […] or WO 95/10516. […] Cell-based assay. COS IC50 values refer to the COS cells activity inhibition of Ras processing, are determined by the methods disclosed in […] or WO 95/10516.

T1 sequence (Q02293 whole entry, one chain of several): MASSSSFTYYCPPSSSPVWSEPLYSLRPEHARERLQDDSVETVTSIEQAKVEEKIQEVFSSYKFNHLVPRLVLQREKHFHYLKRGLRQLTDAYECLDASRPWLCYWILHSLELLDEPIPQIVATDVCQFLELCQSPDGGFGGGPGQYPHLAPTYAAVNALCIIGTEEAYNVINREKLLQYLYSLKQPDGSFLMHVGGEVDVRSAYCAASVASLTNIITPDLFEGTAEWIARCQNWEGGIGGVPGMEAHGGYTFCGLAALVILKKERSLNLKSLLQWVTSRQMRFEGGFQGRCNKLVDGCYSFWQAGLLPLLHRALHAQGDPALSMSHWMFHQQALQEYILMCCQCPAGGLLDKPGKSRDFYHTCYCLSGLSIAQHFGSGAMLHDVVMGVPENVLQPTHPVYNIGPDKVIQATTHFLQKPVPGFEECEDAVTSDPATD

SMILES: O=C(NCc1cccnc1)C1CCCN(C2c3ncc(Br)cc3CCc3cc(Cl)cc(Br)c32)C1 (single isomer, unassigned) [Example 17 Isomer B, 1-(3,10-Dibromo-8-chloro-6,11-dihydro-5H-benzo[5,6]cyclohepta[1,2-b]pyridin-11-yl)-N-(3-pyridinylmethyl)-3-piperidinecarboxamide]
inhibition at 0.1 µM (read-out: FPT Inhibition): 3.4%

SMILES: O=C(NCc1ccncc1)[C@H]1CCCCN1C1c2ccc(Cl)cc2CCc2cc(Br)cnc21 (single isomer, unassigned) [Isomer A2 amide]
FPT Inhibition (@ 1.1 µM): FPT Inhibition = 0% @ 1.1 µM

SMILES: O=C(NCc1cccnc1)C1CCCCN1C1c2ccc(Cl)cc2CCc2cc(Br)cnc21 (single isomer, unassigned) [Isomer D1 amide]
IC50: 0.16 µM

SMILES: O=C(Nc1ccncc1)C1CCN(C2c3ccc(Cl)cc3CCc3cccnc32)CC1 (centres unmarked) [Example 1, 1-[8-Chloro-6,11-dihydro-5H-benzo[5,6]cyclohepta[1,2-b]pyridin-11-yl]-N-(4-pyridinyl)-4-piperidinecarboxamide]
IC50: 9.24 µM

SMILES: O=C(Nc1ccncc1)C1CCN(C2c3ccc(Cl)cc3CCc3cc(Br)cnc32)CC1 (centres unmarked) [Example 2, 1-(3-Bromo-8-chloro-6,11-dihydro-5H-benzo[5,6]cyclohepta[1,2-b]pyridin-11-yl)-N-(4-pyridinyl)-4-piperidinecarboxamide]
inhibition at 0.39 µM (read-out: FPT Inhibition): 0%

SMILES: O=C(NCc1ccncc1)C1CCN(C2c3ccc(Cl)cc3CCc3cc(Br)cnc32)CC1 (centres unmarked) [Example 3, 1-(3-Bromo-8-chloro-6,11-dihydro-5H-benzo[5,6]cyclohepta[1,2-b]pyridin-11-yl)-N-(4-pyridinylmethyl)-4-piperidinecarboxamide]
inhibition at 1.1 µM (read-out: FPT Inhibition): 21%

SMILES: O=C(NCc1cccnc1)C1CCN(C2c3ccc(Cl)cc3CCc3cc(Br)cnc32)CC1 (centres unmarked) [Example 4, 1-(3-Bromo-8-chloro-6,11-dihydro-5H-benzo[5,6]cyclohepta[1,2-b]pyridin-11-yl)-N-(3-pyridinylmethyl)-4-piperidinecarboxamide]
IC50: 1.3 µM

SMILES: O=C(NC1CCNCC1)C1CCN(C2c3ccc(Cl)cc3CCc3cc(Br)cnc32)CC1 (centres unmarked) [Example 7 Step B, 1-(3-Bromo-8-chloro-6,11-dihydro-5H-benzo[5,6]cyclohepta[1,2-b]pyridin-11-yl)-N-(4-piperidinyl)-4-piperidinecarboxamide]
inhibition at 0.39 µM (read-out: FPT Inhibition): 8.75%

Second part, the compound after the results:

IC50 (unit printed as uM (Examples 49-54)): 0.1 µM
SMILES: O=C(NCc1ccc[n+]([O-])c1)[C@@H]1CCCN(C2c3ncc(Br)cc3CCc3cc(Cl)cc(Br)c32)C1 (single isomer, unassigned) [Example 51, 1-(3,10-Dibromo-8-chioro-6,11-dihydro-5H-benzo[5,6]cyclohepta[1,2-b]pyridin-11-yl)-N-(3-pyridinylmethyl)-3-piperidinecarboxamide N1-oxide]

FPT Inhibition (@ 1.1 µM): FPT Inhibition = 13% @ 1.1 µM
SMILES: O=C(NCc1ccncc1)[C@H]1CCCCN1C1c2ccc(Cl)cc2CCc2cc(Br)cnc21 (single isomer, unassigned) [Isomer B2 amide]

IC50: 0.3 µM
SMILES: O=C(NCc1cccnc1)C1CCCCN1C1c2ccc(Cl)cc2CCc2cc(Br)cnc21 (single isomer, unassigned) [Isomer C1 amide]

FPT Inhibition (@ 0.38 µM): FPT Inhibition =11% @ 0.38 µM
SMILES: O=C(NCc1cccnc1)[C@H]1CCCCN1C1c2ccc(Cl)cc2CCc2cc(Br)cnc21 (single isomer, unassigned) [Isomer C2 amide]

FPT Inhibition (@ 0.38 µM): FPT Inhibition = 0% @ 0.38 µM
SMILES: O=C(NCc1cccnc1)[C@H]1CCCCN1C1c2ccc(Cl)cc2CCc2cc(Br)cnc21 (single isomer, unassigned) [Isomer D2 amide]

IC50: 1.8 µM
SMILES: O=C(NCc1ccccn1)C1CCN(C2c3ccc(Cl)cc3CCc3cc(Br)cnc32)CC1 (centres unmarked) [Example 5, 1-(3-Bromo-8-chloro-6,11-dihydro-5H-benzo[5,6]cyclohepta[1,2-b]pyridin-11-yl)-N-(2-pyridinyimethyl)-4-piperidinecarboxamide]
